Data from ChEMBL document CHEMBL4052645, “Discovery of potent and efficacious pyrrolopyridazines as dual JAK1/3 inhibitors” (Bioorg Med Chem Lett, 2017).

Experiments:
[1] = target: Phosphorylase b kinase gamma catalytic chain, skeletal muscle/heart isoform (Homo sapiens) (UniProt Q16816); assay: Inhibition of wild-type human full length PHKG1 (M1 to Y387 residues) expressed in bacterial expression system assessed as residual activity at 50 nM by Kinomescan method relative to control
[2] = target: Ribosomal protein S6 kinase alpha-1 (Homo sapiens) (UniProt Q15418); assay: Inhibition of wild-type human partial length C-terminal RSK1 […] (P360 to L681 residues) expressed in bacterial expression system assessed as residual activity at 50 nM by Kinomescan method relative to control
[3] = target: Tyrosine-protein kinase TXK (Homo sapiens) (UniProt P42681); assay: Inhibition of wild-type human partial length TXK (L238 to W527 residues) expressed in bacterial expression system assessed as residual activity at 50 nM by Kinomescan method relative to control
[4] = target: Calcium/calmodulin-dependent protein kinase kinase 1 (Homo sapiens) (UniProt Q8N5S9); assay: Inhibition of wild-type human partial length CAMKK1 (R65 to E414 residues) expressed in bacterial expression system assessed as residual activity at 50 nM by Kinomescan method relative to control
[5] = target: Cyclin-G-associated kinase (Homo sapiens) (UniProt O14976); assay: Inhibition of wild-type human partial length GAK (G13 to Y338 residues) expressed in bacterial expression system assessed as residual activity at 50 nM by Kinomescan method relative to control
[6] = target: Tyrosine-protein kinase JAK2 (Homo sapiens, UniProt O60674); assay: Inhibition of GST-tagged JAK2 (unknown origin) after 3 hrs by Caliper assay
[7] = target: Ribosomal protein S6 kinase alpha-6 (Homo sapiens) (UniProt Q9UK32); assay: Inhibition of wild-type human partial length C-terminal RSK4 kinase domain 2 (I401 to Y711 residues) expressed in bacterial expression system assessed as residual activity at 50 nM by Kinomescan method relative to control
[8] = target: JAK3/JAK1 (Homo sapiens, UniProt P23458+P52333); assay: Inhibition of JAK1/JAK3 in human whole blood assessed as reduction in IL-2 induced IFN-gamma production after 18 hrs by ELISA; type: protein-complex assay
[9] = target: Insulin receptor (Homo sapiens) (UniProt P06213); assay: Inhibition of wild-type human partial length INSR (P997 to E1318 residues) expressed in mammalian expression system assessed as residual activity at 50 nM by Kinomescan method relative to control
[10] = target: Ankyrin repeat and protein kinase domain-containing protein 1 (Homo sapiens) (UniProt Q8NFD2); assay: Inhibition of wild-type human partial length SGK288 (M1 to A305 residues) expressed in mammalian expression system assessed as residual activity at 50 nM by Kinomescan method relative to control
[11] = target: T1, Tyrosine-protein kinase JAK3 (Homo sapiens, UniProt P52333); assay: Inhibition of JAK3 (unknown origin) using CSKtide as substrate after 30 mins in presence of [gamma33P]ATP by liquid scintillation counting method
T1 sequence (P52333 whole entry): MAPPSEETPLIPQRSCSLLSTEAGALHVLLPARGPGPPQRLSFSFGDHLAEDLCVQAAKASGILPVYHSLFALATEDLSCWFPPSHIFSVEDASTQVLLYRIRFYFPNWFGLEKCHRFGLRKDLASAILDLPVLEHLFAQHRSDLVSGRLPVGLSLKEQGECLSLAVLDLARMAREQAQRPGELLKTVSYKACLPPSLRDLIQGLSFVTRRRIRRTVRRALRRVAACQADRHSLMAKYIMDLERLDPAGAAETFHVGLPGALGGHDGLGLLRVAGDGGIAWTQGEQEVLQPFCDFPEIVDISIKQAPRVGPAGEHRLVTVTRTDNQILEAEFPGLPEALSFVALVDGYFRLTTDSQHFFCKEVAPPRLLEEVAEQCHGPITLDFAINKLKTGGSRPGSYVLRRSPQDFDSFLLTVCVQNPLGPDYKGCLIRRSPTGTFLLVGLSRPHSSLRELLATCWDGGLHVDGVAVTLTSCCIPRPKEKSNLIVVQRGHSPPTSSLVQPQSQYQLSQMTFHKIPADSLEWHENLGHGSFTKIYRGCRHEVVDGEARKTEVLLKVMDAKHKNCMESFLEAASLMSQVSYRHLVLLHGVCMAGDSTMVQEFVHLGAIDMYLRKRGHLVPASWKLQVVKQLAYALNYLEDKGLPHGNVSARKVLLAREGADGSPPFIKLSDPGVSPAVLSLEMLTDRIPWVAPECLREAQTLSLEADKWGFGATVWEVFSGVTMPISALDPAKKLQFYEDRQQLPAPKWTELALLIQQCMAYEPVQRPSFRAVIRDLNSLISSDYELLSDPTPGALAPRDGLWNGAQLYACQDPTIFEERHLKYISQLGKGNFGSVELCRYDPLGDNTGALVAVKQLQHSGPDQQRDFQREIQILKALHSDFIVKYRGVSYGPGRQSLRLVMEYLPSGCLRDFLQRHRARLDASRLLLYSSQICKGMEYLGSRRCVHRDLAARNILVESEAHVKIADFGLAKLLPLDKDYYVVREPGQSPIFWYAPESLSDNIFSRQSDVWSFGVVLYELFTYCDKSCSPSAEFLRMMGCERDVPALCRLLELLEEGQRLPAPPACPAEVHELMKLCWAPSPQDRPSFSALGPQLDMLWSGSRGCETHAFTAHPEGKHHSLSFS

[12] = target: Homeodomain-interacting protein kinase 3 (Homo sapiens) (UniProt Q9H422); assay: Inhibition of wild-type human partial length HIPK3 (M153 to N562 residues) expressed in mammalian expression system assessed as residual activity at 50 nM by Kinomescan method relative to control
[13] = target: Cyclin-dependent kinase 7 (Homo sapiens) (UniProt P50613); assay: Inhibition of wild-type human full length CDK7 (M1 to L344 residues) expressed in mammalian expression system assessed as residual activity at 50 nM by Kinomescan method relative to control
[14] = target: Non-receptor tyrosine-protein kinase TYK2 (Homo sapiens, UniProt P29597); assay: Inhibition of wild-type human partial length TYK2 JH2 pseudokinase domain (G556 to D888 residues) expressed in mammalian expression system assessed as residual activity at 50 nM by Kinomescan method relative to control
[15] = target: Angiopoietin-1 receptor (Homo sapiens) (UniProt Q02763); assay: Inhibition of wild-type human partial length TIE2 (N804 to T1112 residues) expressed in bacterial expression system assessed as residual activity at 50 nM by Kinomescan method relative to control
[16] = target: Mitogen-activated protein kinase kinase kinase 9 (Homo sapiens) (UniProt P80192); assay: Inhibition of wild-type human partial length MLK1 (V88 to W426 residues) expressed in bacterial expression system assessed as residual activity at 50 nM by Kinomescan method relative to control
[17] = target: Phosphatidylinositol 4,5-bisphosphate 3-kinase catalytic subunit beta isoform (Homo sapiens) (UniProt P42338); assay: Inhibition of wild-type human partial length PI3KCB (P118 to S1070 residues) expressed in mammalian expression system assessed as residual activity at 50 nM by Kinomescan method relative to control
Phosphatidylinositol 4,5-bisphosphate 3-kinase catalytic subunit beta isoform (Homo sapiens), sequence (P42338 whole entry, looked up, the tested form may be a part, canonical isoform): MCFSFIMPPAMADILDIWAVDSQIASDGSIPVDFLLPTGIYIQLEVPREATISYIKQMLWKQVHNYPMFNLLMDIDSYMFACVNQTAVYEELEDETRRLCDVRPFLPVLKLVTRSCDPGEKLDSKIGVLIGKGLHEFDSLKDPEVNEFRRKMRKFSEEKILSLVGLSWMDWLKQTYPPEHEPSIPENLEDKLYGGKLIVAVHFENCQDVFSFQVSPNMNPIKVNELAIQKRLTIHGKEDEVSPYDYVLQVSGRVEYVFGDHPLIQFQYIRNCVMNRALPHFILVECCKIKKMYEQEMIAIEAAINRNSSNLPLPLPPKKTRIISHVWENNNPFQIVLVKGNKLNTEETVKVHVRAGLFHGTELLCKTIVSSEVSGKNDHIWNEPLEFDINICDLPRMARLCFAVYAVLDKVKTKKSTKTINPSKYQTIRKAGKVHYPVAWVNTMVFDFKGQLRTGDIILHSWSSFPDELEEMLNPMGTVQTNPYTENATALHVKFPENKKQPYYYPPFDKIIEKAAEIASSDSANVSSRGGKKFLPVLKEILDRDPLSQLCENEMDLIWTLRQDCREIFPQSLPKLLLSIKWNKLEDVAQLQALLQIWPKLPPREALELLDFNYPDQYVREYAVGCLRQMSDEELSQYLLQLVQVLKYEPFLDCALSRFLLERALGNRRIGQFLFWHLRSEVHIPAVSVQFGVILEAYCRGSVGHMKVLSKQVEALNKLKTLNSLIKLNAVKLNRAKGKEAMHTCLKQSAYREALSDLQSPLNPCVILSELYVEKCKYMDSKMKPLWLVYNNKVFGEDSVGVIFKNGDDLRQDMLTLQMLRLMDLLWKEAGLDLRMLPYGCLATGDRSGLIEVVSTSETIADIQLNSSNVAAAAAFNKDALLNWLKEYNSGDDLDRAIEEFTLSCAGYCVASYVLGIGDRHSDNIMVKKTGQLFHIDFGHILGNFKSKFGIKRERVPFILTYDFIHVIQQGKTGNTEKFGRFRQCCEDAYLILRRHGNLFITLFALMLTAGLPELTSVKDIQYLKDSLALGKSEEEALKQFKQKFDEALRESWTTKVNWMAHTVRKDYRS

Homeodomain-interacting protein kinase 3 (Homo sapiens), sequence (Q9H422 whole entry, looked up, the tested form may be a part): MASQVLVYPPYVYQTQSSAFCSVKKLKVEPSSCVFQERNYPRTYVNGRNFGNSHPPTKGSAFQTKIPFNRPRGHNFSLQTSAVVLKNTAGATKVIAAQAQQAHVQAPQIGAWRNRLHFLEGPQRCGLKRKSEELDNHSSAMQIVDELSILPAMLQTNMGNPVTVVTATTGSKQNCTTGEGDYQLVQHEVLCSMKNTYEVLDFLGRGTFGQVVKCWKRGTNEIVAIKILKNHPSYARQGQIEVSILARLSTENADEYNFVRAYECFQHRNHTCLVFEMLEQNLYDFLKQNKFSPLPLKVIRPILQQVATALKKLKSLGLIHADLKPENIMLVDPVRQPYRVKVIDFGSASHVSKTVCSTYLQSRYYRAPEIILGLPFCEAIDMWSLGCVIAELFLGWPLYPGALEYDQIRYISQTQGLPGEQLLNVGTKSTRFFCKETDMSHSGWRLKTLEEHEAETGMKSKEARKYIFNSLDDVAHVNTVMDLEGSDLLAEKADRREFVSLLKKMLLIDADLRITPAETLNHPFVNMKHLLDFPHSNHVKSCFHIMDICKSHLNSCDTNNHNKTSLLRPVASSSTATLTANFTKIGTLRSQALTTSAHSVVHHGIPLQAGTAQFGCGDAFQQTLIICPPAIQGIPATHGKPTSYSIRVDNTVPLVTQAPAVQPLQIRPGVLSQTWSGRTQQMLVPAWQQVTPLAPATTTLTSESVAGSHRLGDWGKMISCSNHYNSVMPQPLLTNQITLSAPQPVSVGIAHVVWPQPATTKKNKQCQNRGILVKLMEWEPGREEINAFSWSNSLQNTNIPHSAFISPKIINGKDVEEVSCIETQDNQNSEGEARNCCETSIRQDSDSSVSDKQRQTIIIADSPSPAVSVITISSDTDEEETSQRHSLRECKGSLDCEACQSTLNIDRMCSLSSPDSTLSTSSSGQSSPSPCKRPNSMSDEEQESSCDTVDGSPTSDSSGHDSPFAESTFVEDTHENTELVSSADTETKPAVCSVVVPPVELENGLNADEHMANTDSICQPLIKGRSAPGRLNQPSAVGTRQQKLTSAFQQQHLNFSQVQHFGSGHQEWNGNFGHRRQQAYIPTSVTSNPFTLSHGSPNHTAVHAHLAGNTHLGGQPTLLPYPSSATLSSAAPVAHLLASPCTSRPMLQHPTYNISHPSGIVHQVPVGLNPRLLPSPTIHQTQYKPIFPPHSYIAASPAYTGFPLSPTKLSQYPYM
Ankyrin repeat and protein kinase domain-containing protein 1 (Homo sapiens), sequence (Q8NFD2 whole entry, the tested form may be a part): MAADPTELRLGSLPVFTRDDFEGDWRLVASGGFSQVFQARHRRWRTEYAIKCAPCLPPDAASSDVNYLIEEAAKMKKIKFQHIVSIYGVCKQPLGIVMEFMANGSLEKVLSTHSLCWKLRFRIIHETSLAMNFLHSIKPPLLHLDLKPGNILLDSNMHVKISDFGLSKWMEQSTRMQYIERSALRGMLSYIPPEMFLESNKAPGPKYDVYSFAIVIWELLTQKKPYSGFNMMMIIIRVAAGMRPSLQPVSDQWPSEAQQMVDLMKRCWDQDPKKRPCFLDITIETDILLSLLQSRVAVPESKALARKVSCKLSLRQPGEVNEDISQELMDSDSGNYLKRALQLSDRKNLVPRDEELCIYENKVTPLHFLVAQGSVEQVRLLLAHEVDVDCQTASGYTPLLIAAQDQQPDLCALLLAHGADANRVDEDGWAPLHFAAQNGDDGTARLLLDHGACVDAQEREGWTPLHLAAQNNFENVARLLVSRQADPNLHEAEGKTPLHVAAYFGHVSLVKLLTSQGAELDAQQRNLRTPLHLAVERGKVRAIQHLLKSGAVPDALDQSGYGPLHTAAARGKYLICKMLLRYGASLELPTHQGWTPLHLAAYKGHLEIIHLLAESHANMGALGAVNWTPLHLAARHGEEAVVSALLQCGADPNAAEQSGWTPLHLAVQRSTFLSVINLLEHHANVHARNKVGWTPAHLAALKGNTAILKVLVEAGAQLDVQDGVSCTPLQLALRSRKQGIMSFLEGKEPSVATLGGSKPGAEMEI
JAK3/JAK1, sequence (P23458 whole entry, one chain of several, the tested form may be a part): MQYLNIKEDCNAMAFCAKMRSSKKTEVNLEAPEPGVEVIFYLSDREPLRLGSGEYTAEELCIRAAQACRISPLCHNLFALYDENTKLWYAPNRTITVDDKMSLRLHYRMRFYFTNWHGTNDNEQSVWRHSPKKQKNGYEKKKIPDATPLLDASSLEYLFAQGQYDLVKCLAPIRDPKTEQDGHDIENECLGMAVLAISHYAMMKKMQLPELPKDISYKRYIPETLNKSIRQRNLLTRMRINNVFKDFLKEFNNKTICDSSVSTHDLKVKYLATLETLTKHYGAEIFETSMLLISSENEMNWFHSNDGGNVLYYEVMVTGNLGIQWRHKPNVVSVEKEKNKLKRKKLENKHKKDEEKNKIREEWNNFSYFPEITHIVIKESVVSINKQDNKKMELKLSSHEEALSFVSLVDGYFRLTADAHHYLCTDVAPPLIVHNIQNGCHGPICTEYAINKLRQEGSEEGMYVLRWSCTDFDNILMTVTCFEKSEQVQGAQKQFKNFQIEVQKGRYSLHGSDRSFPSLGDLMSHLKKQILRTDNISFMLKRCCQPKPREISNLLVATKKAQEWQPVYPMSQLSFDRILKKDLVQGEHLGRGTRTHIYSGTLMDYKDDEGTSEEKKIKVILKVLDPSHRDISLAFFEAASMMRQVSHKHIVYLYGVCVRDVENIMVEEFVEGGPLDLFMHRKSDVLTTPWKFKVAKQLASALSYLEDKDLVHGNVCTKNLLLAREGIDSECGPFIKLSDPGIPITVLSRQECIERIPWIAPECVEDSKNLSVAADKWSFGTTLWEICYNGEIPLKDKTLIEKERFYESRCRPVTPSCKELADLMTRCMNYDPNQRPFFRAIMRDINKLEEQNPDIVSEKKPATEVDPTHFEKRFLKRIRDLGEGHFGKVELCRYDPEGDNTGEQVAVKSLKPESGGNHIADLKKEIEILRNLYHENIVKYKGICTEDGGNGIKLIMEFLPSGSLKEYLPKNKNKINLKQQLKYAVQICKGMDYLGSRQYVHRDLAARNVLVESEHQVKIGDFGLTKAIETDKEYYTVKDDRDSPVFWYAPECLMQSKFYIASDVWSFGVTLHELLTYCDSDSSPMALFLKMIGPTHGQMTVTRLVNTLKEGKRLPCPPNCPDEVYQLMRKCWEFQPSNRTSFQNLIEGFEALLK
Ribosomal protein S6 kinase alpha-1 (Homo sapiens), sequence (Q15418 whole entry, the tested form may be a part): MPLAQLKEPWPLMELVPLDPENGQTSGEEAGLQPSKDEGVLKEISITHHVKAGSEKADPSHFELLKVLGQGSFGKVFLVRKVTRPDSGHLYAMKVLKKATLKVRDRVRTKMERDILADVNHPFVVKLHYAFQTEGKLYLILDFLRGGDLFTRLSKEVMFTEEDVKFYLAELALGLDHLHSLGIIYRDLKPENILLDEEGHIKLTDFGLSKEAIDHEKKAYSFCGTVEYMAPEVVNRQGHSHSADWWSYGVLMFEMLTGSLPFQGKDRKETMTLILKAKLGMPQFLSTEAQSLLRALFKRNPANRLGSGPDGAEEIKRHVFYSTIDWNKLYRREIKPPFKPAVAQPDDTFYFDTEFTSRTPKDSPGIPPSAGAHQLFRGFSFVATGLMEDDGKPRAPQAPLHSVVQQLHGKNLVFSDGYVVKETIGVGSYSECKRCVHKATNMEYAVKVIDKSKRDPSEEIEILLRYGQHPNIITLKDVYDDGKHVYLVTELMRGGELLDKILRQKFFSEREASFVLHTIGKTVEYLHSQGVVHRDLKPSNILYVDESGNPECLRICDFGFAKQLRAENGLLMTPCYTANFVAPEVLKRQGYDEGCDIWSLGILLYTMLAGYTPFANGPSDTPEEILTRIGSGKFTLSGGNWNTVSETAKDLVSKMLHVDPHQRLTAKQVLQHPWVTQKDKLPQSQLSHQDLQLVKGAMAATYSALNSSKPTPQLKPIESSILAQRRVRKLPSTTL

Row | Structure (SMILES) | Activity [1] | Activity [2] | Activity [3] | Activity [4] | Activity [5] | IC50 [6] | Activity [7] | IC50 [8] | Activity [9] | Activity [10] | IC50 [11] | Activity [12] | Activity [13] | Activity [14] | Activity [15] | Activity [16] | Activity [17]
1 | CC1(C)[C@H](Nc2c(C(N)=O)cnn3cc(-c4ccccc4)cc23)CC[C@]1(C)N | 81% | 81% | 100% | 92% | 91% | 9 nM | 50% | 200 nM | 94% | 100% | 0.9 nM | 72% | 93% | 100% | 87% | 78% | 100%
2 | COc1ccc(-c2cc3c(N[C@@H]4CC[C@](C)(N)C4(C)C)c(C(N)=O)cnn3c2)cn1 | 100% | 100% | 100% | 100% | 100% | 15 nM | 96% | 100 nM | 72% | 100% | 0.9 nM | 100% | 84% | 100% | 100% | 90% | 100%
